The record followed here is PMC6627469 (Journal of Medicinal Chemistry, 2019).

Molecules are shown by their SMILES. Entries after “also recorded” stand apart in the source; their conditions may differ.

In assay [1] the test system is Influenza A virus WU95 (containing a H3 protein of a human H3N2 virus). It is filed as binding.
The next assay deals with H3-containg WU95 virus. As to the kind of experiment: Hemagglutination inhibition. Format: cell-based, Influenza A virus. To be noted: relative to the potency of 8, corrected for valency.
For the next assay, the system named is IAV WU95. It is filed as cell-based, Influenza A virus.

Turning to `C#CCO[C@@H]1O[C@H](CO)[C@@H](O[C@@H]2O[C@H](CO[C@]3(C(=O)O)C[C@H](O)[C@@H](NC(C)=O)[C@H]([C@H](O)[C@H](O)CO)O3)[C@H](O)[C@H](O)[C@H]2O)[C@H](O)[C@H]1NC(C)=O` [Compound 7], in assay [1], the “rel pot. (BLI)” value is 1 (1) and the “rel pot. per sugar (BLI)” value is given as 1 (1). Turning to `CC(=O)N[C@H]1[C@H]([C@H](O)[C@H](O)CO)O[C@@](OC[C@H]2O[C@@H](O[C@H]3[C@H](O)[C@@H](O)[C@H](OCc4cn(CCCC(=O)Nc5cccc(-c6cc(-c7cccc(NC(=O)CCCn8cc(CO[C@@H]9O[C@H](CO)[C@@H](O[C@@H]%10O[C@H](CO[C@]%11(C(=O)O)C[C@H](O)[C@@H](NC(C)=O)[C@H]([C@H](O)[C@H](O)CO)O%11)[C@H](O)[C@H](O)[C@H]%10O)[C@H](O)[C@H]9O)nn8)c7)cc(-c7cccc(NC(=O)CCCn8cc(CO[C@@H]9O[C@H](CO)[C@@H](O[C@@H]%10O[C@H](CO[C@]%11(C(=O)O)C[C@H](O)[C@@H](NC(C)=O)[C@H]([C@H](O)[C@H](O)CO)O%11)[C@H](O)[C@H](O)[C@H]%10O)[C@H](O)[C@H]9O)nn8)c7)c6)c5)nn4)O[C@@H]3CO)[C@H](O)[C@@H](O)[C@H]2O)(C(=O)O)C[C@@H]1O` [Compound 10], in assay [1], the “rel pot. (BLI)” value was 20 (7) and the “rel pot. per sugar (BLI)” value is given as 20 (7). For the same molecule, the “rel pot. per sugar (HAI)” value with H3-containg WU95 virus came to 2. In the case of `CC(=O)N[C@H]1[C@H](O[C@H]2[C@@H](O)[C@@H](CO)O[C@@H](O[C@H]3[C@H](O)[C@@H](O)[C@H](n4cc(-c5ccc(-c6cn(CCCC(=O)Nc7cccc(-c8cc(-c9cccc(NC(=O)CCCn%10cc(-c%11ccc(-c%12cn([C@@H]%13O[C@H](CO)[C@@H](O[C@@H]%14O[C@H](CO)[C@H](O)[C@H](O[C@@H]%15O[C@H](CO)[C@@H](O[C@@H]%16O[C@H](CO)[C@H](O)[C@H](O)[C@H]%16O)[C@H](O)[C@H]%15NC(C)=O)[C@H]%14O)[C@H](O)[C@H]%13O)nn%12)cc%11)nn%10)c9)cc(-c9cccc(NC(=O)CCCn%10cc(-c%11ccc(-c%12cn([C@@H]%13O[C@H](CO)[C@@H](O[C@@H]%14O[C@H](CO)[C@H](O)[C@H](O[C@@H]%15O[C@H](CO)[C@@H](O[C@@H]%16O[C@H](CO)[C@H](O)[C@H](O)[C@H]%16O)[C@H](O)[C@H]%15NC(C)=O)[C@H]%14O)[C@H](O)[C@H]%13O)nn%12)cc%11)nn%10)c9)c8)c7)nn6)cc5)nn4)O[C@@H]3CO)[C@@H]2O)O[C@H](CO)[C@@H](O[C@@H]2O[C@H](CO)[C@H](O)[C@H](O)[C@H]2O)[C@@H]1O` [Compound 13], in assay [1], the “IC50 BLI” value is on record as “did not yield any detectable inhibition in the assay up to the 20 μM; also recorded: no inhib at 20 μM”.

As to `CC(=O)N[C@H]1[C@H]([C@H](O)[C@H](O)CO)O[C@@](OC[C@H]2O[C@@H](O[C@H]3[C@H](O)[C@@H](O)[C@H](OCc4cn([C@@H]5O[C@H](CO)[C@@H](n6cc(-c7ccc(-c8cn([C@H]9[C@H](O)[C@@H](O)[C@H](n%10cc(CO[C@@H]%11O[C@H](CO)[C@@H](O[C@@H]%12O[C@H](CO[C@]%13(C(=O)O)C[C@H](O)[C@@H](NC(C)=O)[C@H]([C@H](O)[C@H](O)CO)O%13)[C@H](O)[C@H](O)[C@H]%12O)[C@H](O)[C@H]%11O)nn%10)O[C@@H]9CO)nn8)cc7)nn6)[C@H](O)[C@H]5O)nn4)O[C@@H]3CO)[C@H](O)[C@@H](O)[C@H]2O)(C(=O)O)C[C@@H]1O` [Compound 17], in assay [1], the “rel pot. (BLI)” value is recorded as 23 (12) and the “rel pot. per sugar (BLI)” value is recorded as 23 (12). For the molecule `CCC(CC)O[C@@H]1C=C(C(=O)O)C[C@H](N)[C@H]1NC(C)=O` [oseltamivir carboxylate], the “effect on infection, single agent” value in the assay on IAV WU95 is “little effect”.
